Laboratory results: US20240139211A1, “METHODS AND COMPOSITIONS FOR TREATING AMYOTROPHIC LATERAL SCLEROSIS” (Amylyx Pharmaceuticals, Inc., priority 2022, published 2024)
Read-outs that look alike come from different tables or passages of the source.

How the values were obtained:
OAT1 [1] = biological target: T1, OAT1 (Homo sapiens, UniProt Q4U2R8); assay: Inhibitor of OAT1, probe substrate uptake; conditions: for potency estimated from few doses: read-out: Estimated IC50, OAT1; for Inhibition of OAT1 / Inhibitor of OAT1: two concentrations per test article
T1 sequence (Q4U2R8 1-563): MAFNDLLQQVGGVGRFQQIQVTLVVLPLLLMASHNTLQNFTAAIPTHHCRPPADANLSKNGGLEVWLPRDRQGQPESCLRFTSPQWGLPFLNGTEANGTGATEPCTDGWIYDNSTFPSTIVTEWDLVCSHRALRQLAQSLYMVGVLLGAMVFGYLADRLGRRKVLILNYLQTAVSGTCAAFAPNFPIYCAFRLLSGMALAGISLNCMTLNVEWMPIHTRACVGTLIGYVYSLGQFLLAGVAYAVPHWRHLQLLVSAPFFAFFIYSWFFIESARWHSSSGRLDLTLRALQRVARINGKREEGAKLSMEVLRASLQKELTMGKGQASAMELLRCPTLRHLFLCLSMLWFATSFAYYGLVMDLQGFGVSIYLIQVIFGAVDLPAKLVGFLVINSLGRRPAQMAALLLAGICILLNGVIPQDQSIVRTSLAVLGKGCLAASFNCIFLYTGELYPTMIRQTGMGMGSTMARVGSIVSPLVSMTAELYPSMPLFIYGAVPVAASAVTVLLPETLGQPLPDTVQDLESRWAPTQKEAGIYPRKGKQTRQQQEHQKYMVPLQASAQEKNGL

OAT1 [2] = biological target: T1, OAT1; assay: in vitro
human hepatocytes = assay: Cytotoxicity of six test articles in hepatocyte cultures (MTS); conditions: for Concentrations at which not hepatotoxic: Donor 1, 72±2 hours
P-gp = P-gp (Homo sapiens, UniProt P08183); assay: Substrate of P-gp (Caco-2 cells, selective inhibitors)
Sequence of P-gp (P08183 whole entry): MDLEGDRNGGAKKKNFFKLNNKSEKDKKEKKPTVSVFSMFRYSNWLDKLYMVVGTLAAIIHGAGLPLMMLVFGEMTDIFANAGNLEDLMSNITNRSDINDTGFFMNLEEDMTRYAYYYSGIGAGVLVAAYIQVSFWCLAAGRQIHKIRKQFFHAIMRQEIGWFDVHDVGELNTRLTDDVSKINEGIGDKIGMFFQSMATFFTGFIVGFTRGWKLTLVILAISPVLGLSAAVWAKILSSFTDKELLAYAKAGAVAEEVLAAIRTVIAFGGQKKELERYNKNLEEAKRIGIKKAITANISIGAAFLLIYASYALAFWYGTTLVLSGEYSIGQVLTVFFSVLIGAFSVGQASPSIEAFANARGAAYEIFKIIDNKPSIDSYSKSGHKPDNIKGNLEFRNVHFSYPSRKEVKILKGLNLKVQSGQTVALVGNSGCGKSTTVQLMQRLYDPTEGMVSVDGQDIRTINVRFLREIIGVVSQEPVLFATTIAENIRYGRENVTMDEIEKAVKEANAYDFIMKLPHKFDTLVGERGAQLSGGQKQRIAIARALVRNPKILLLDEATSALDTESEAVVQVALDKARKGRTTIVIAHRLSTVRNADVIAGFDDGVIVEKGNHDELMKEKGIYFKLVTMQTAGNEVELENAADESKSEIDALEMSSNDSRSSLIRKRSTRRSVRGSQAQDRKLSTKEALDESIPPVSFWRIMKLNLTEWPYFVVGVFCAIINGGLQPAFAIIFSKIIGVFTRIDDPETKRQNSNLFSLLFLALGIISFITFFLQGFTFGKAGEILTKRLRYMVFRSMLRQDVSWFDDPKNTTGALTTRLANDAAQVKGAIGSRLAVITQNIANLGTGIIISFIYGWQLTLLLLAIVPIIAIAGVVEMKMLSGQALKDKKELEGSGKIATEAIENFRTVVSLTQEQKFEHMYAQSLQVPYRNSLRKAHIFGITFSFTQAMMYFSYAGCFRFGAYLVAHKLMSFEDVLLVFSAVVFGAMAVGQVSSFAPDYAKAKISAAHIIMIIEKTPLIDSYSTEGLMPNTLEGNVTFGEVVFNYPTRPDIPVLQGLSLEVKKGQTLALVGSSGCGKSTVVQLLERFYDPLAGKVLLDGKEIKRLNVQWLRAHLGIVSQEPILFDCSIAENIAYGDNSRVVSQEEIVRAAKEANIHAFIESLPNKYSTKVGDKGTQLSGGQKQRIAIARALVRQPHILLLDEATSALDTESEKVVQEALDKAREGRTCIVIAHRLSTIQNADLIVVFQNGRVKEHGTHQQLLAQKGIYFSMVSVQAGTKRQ

OAT1 [3] = biological target: T1, OAT1; assay: Substrate of OAT1, uptake in HEK293 cells
From the text: (§1) Vector-transfected HEK cells were used as a control.

BSEP [4] = biological target: T2, BSEP (Homo sapiens, UniProt O95342); assay: Inhibitor of BSEP; conditions: for Inhibition of BSEP / Inhibitor of BSEP: two concentrations per test article
T2 sequence (O95342 whole entry): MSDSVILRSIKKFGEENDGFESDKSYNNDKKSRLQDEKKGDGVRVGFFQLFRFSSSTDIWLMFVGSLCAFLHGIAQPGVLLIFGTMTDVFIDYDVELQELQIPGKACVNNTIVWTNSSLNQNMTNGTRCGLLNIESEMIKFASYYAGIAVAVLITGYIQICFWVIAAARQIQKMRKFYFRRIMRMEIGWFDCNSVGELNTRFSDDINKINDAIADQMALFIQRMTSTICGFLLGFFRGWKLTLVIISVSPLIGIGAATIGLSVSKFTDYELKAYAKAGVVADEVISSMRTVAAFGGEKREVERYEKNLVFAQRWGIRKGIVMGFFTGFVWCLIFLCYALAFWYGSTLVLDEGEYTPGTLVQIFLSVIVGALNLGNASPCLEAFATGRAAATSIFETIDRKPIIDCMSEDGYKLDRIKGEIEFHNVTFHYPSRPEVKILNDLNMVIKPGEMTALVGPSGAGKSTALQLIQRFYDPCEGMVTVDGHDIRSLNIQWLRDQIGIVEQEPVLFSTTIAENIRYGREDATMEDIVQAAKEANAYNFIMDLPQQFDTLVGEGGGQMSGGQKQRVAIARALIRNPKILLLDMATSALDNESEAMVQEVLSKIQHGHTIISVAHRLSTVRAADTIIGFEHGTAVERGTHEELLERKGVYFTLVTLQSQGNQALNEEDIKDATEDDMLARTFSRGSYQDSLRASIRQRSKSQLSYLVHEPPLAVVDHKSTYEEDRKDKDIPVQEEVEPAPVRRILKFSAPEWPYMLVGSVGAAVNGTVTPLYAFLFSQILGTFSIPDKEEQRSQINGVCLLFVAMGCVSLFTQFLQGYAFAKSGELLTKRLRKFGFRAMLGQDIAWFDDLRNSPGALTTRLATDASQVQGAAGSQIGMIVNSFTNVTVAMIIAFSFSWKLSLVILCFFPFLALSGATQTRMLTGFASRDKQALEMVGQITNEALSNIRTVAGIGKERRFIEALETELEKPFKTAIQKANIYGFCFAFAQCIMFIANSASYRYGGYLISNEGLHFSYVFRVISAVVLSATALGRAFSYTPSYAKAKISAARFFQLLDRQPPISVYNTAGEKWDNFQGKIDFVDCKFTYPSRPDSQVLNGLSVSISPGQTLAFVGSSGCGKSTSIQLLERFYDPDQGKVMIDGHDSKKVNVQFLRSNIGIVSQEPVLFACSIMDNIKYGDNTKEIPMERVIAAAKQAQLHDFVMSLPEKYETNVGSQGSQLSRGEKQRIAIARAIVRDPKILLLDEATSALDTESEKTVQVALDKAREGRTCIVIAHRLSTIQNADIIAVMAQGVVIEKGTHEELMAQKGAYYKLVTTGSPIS

OATP1B1 = OATP1B1 (Homo sapiens, UniProt Q9Y6L6); assay: Inhibitor of OATP1B1, probe substrate uptake; conditions: for potency estimated from few doses: read-out: Estimated IC50, OATP1B1; for Inhibition of OATP1B1 / Inhibitor of OATP1B1: two concentrations per test article
Sequence of OATP1B1 (Q9Y6L6 whole entry): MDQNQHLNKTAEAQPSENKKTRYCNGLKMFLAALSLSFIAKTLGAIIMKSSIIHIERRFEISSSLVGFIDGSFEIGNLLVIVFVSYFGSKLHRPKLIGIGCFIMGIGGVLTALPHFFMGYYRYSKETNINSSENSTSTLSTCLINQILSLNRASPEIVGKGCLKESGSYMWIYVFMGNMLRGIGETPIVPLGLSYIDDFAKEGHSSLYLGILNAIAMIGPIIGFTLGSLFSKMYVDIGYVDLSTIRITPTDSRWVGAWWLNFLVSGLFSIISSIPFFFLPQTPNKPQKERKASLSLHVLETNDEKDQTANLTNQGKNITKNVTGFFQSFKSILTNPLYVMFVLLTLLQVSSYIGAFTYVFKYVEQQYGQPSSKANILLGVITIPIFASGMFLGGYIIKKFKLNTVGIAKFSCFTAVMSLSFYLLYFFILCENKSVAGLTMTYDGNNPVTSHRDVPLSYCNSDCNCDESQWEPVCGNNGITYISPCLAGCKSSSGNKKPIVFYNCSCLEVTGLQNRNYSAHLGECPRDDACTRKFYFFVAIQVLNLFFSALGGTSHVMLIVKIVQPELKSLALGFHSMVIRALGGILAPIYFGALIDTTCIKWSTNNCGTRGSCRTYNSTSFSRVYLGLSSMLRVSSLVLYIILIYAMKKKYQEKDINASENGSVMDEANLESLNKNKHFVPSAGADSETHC

OCT2 = biological target: T3, OCT2 (Homo sapiens, UniProt O15244); assay: Inhibitor of OCT2, probe substrate uptake; conditions: for Inhibition of OCT2 / Inhibitor of OCT2: two concentrations per test article
T3 sequence (O15244 1-555): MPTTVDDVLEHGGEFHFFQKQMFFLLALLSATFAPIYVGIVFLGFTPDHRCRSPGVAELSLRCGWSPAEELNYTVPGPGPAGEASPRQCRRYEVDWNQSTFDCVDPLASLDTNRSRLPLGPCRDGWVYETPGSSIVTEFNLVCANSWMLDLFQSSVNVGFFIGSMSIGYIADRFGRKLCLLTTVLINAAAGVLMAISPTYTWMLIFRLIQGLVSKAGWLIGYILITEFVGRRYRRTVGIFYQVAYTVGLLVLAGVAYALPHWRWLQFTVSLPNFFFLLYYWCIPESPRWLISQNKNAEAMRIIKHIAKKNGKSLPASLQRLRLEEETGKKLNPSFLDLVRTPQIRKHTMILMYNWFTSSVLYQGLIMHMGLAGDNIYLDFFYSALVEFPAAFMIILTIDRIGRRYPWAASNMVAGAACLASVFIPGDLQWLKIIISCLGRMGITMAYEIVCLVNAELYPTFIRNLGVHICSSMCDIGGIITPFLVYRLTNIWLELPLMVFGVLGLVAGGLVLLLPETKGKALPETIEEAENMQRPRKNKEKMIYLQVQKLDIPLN

OATP1B3 = OATP1B3 (Homo sapiens, UniProt Q9NPD5); assay: Inhibitor of OATP1B3, probe substrate uptake; conditions: for Inhibition of OATP1B3 / Inhibitor of OATP1B3: two concentrations per test article; for potency estimated from few doses: read-out: Estimated IC50, OATP1B3
Sequence of OATP1B3 (Q9NPD5 whole entry): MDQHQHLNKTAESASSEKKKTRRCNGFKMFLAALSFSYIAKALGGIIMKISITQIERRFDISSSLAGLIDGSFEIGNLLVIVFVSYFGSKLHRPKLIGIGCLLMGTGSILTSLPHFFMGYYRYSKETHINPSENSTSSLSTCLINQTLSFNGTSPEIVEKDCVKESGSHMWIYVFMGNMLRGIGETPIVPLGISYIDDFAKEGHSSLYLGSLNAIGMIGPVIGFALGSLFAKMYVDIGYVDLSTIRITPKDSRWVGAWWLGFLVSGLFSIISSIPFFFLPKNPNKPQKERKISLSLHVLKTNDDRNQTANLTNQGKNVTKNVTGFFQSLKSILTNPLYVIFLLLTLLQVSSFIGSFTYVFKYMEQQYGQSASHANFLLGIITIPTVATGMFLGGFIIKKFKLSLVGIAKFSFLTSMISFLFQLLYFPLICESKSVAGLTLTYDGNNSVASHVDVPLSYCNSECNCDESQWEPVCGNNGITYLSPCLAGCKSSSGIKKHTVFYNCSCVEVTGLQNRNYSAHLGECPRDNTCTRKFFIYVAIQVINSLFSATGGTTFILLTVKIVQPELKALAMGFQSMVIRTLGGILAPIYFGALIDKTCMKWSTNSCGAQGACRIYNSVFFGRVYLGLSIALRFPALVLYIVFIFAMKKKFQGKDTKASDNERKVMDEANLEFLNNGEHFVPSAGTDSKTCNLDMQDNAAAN

OAT3 = biological target: T4, OAT3 (Homo sapiens, UniProt Q8TCC7); assay: Substrate of OAT3, uptake in HEK293 cells
T4 sequence (Q8TCC7 1-542): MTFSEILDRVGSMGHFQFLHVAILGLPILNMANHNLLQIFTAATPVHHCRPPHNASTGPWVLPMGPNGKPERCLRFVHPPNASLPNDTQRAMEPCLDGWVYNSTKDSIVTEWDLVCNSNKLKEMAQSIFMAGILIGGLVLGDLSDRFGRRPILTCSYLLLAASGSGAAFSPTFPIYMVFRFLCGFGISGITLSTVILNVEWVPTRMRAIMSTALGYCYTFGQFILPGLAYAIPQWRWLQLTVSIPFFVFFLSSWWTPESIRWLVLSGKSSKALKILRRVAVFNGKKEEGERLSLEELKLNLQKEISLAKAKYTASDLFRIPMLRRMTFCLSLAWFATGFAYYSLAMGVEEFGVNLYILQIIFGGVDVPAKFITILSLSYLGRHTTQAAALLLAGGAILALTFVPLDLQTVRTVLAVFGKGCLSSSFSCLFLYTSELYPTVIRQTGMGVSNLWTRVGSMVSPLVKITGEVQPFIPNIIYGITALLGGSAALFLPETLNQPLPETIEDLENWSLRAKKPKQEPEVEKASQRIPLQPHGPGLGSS
From the text: as §1

BSEP [5] = biological target: T2, BSEP; assay: Substrate of BSEP; conditions: test article 1 and 10 μM
[6] = estimated from two concentrations
[7] = test article 1 and 10 μM, Caco-2 cells

O=C(O)Cc1ccccc1 [Phenylacetic acid, phenylacetic acid]
Uptake activity remaining, OAT1 (OAT1 [1]; 750 μM): 35.2% | potency estimated from few doses (OAT1 [1]; [6]): < 750 µM | Inhibition of OAT1 (OAT1 [1]): inhibited | Inhibitor of OAT1 (OAT1 [1]): Yes | potency estimated from few doses (OAT1 [2]): < 750 µM | Concentrations at which not hepatotoxic (human hepatocytes): ≤ 500 µM | Substrate of P-gp (P-gp; Caco-2, 1 and 10 μM): not a substrate | Substrate of P-gp (P-gp; [7]): No | Substrate of OAT1 (OAT1 [3]; 1 and 10 μM): not a substrate | Substrate of OAT1 (OAT1 [3]; test article 1 and 10 μM): No | potency estimated from few doses (BSEP [4]; human): < 7500 µM | Inhibition of BSEP (BSEP [4]): inhibited | Inhibitor of BSEP (BSEP [4]): Yes | potency estimated from few doses (OATP1B1; [6]): > 7500 µM | Inhibition of OATP1B1 (OATP1B1): inhibited | Inhibitor of OATP1B1 (OATP1B1): Yes | Uptake activity remaining, OCT2 (OCT2; 7500 μM): 24.5% | potency estimated from few doses (OCT2; read-out: Estimated IC50, OCT2, estimated from two concentrations): < 7500 µM | Inhibition of OCT2 (OCT2): inhibited | Inhibitor of OCT2 (OCT2): Yes | Inhibition of OATP1B3 (OATP1B3): did not inhibit | Inhibitor of OATP1B3 (OATP1B3): No | Substrate of OAT3 (OAT3; 1 and 10 μM): not a substrate | Substrate of OAT3 (OAT3; test article 1 and 10 μM): No | Substrate of BSEP (BSEP [5]): No

C[C@H](CCC(=O)NCC(=O)O)[C@H]1CC[C@H]2[C@@H]3[C@@H](O)C[C@@H]4C[C@H](O)CC[C@]4(C)[C@H]3CC[C@]12C [Glycoursodeoxycholic acid, glycoursodeoxycholic acid]
Inhibition of OAT1 (OAT1 [1]): did not inhibit | Inhibitor of OAT1 (OAT1 [1]): No | Concentrations at which not hepatotoxic (human hepatocytes): ≤ 100 µM | Efflux remaining with zosuquidar (P-gp; Caco-2): < 55.3% | Substrate of P-gp (P-gp; Caco-2, 1 and 10 μM): as a substrate | Efflux remaining with verapamil (P-gp; Caco-2, at 10 μM): 74.7% | Substrate of P-gp (P-gp; [7]): Yes | potency estimated from few doses (BSEP [4]; human): < 10 µM | Inhibition of BSEP (BSEP [4]): inhibited | Inhibitor of BSEP (BSEP [4]): Yes | Uptake activity remaining, OATP1B1 (OATP1B1; 10 μM): 50.4% | Uptake activity remaining, OATP1B1 (OATP1B1; 100 μM): 1.68% | Inhibition of OATP1B1 (OATP1B1): inhibited | Inhibitor of OATP1B1 (OATP1B1): Yes | Inhibition of OCT2 (OCT2): did not inhibit | Inhibitor of OCT2 (OCT2): No | Uptake activity remaining, OATP1B3 (OATP1B3; 100 μM): 10.6% | potency estimated from few doses (OATP1B3; [6]): < 100 µM | Inhibition of OATP1B3 (OATP1B3): inhibited | Inhibitor of OATP1B3 (OATP1B3): Yes | Substrate of BSEP (BSEP [5]): Yes

ursodeoxycholic acid
potency estimated from few doses (OAT1 [1]; [6]): < 500 µM | potency estimated from few doses (OAT1 [1]; estimated from two doses): < 500 µM | Inhibition of OAT1 (OAT1 [1]): inhibited | Inhibitor of OAT1 (OAT1 [1]): Yes | Effect on cell viability (human hepatocytes; Donor 1, 500 μM): affected cell viability | Concentrations at which not hepatotoxic (human hepatocytes): ≤ 250 µM | Substrate of P-gp (P-gp; Caco-2, 1 and 10 μM): not a substrate | Substrate of P-gp (P-gp; [7]): No | Substrate of OAT1 (OAT1 [3]; 1 and 10 μM): not a substrate | Substrate of OAT1 (OAT1 [3]; test article 1 and 10 μM): No | Uptake activity remaining, OATP1B1 (OATP1B1; 50 μM): 545.1% | Uptake activity remaining, OATP1B1 (OATP1B1; 500 μM): no uptake activity remaining | potency estimated from few doses (OATP1B1; [6]): < 50 µM | potency estimated from few doses (OATP1B1; estimated from two doses): < 50 µM | Inhibition of OATP1B1 (OATP1B1): inhibited | Inhibitor of OATP1B1 (OATP1B1): Yes | Inhibition of OCT2 (OCT2): did not inhibit | Inhibitor of OCT2 (OCT2): No | Uptake activity remaining, OATP1B3 (OATP1B3; 50 μM): 545.1% | Uptake activity remaining, OATP1B3 (OATP1B3; 500 μM): no uptake activity remaining | potency estimated from few doses (OATP1B3; [6]): < 50 µM | potency estimated from few doses (OATP1B3; estimated from two doses): < 50 µM | Inhibition of OATP1B3 (OATP1B3): inhibited | Inhibitor of OATP1B3 (OATP1B3): Yes | Substrate of OAT3 (OAT3; 1 and 10 μM): not a substrate | Substrate of OAT3 (OAT3; test article 1 and 10 μM): No

O=C(O)CCCc1ccccc1 [PB, sodium phenylbutyrate]
Uptake activity remaining, OAT1 (OAT1 [1]; 25 μM): 21.1% | potency estimated from few doses (OAT1 [1]; [6]): < 25 µM | Inhibition of OAT1 (OAT1 [1]): inhibited | Inhibitor of OAT1 (OAT1 [1]): Yes | potency estimated from few doses (OAT1 [2]): < 25 µM | Concentrations at which not hepatotoxic (human hepatocytes): ≤ 250 µM | Substrate of P-gp (P-gp; Caco-2, 1 and 10 μM): not a substrate | Substrate of P-gp (P-gp; [7]): No | Inhibition of BSEP (BSEP [4]): did not inhibit | Inhibitor of BSEP (BSEP [4]): No | Inhibition of OATP1B1 (OATP1B1): did not inhibit | Inhibitor of OATP1B1 (OATP1B1): No | Inhibition of OCT2 (OCT2): did not inhibit | Inhibitor of OCT2 (OCT2): No | Inhibition of OATP1B3 (OATP1B3): did not inhibit | Inhibitor of OATP1B3 (OATP1B3): No | Substrate of BSEP (BSEP [5]): No

tauroursodeoxycholic acid [TUDCA]
Inhibition of OAT1 (OAT1 [1]): did not inhibit | Inhibitor of OAT1 (OAT1 [1]): No | Concentrations at which not hepatotoxic (human hepatocytes): 550 µM | Substrate of P-gp (P-gp; Caco-2, 1 and 10 μM): as a substrate | Substrate of P-gp (P-gp; [7]): Yes | Substrate of OAT1 (OAT1 [3]; 1 and 10 μM): not a substrate | Substrate of OAT1 (OAT1 [3]; test article 1 and 10 μM): No | potency estimated from few doses (BSEP [4]; read-out: Estimated IC50, BSEP, estimated from two concentrations): < 5 µM | Inhibition of BSEP (BSEP [4]): inhibited | Inhibitor of BSEP (BSEP [4]): Yes | Uptake activity remaining, OATP1B1 (OATP1B1; 50 μM): roughly 18% | potency estimated from few doses (OATP1B1; [6]): < 50 µM | potency estimated from few doses (OATP1B1; estimated from two doses): < 50 µM | Inhibition of OATP1B1 (OATP1B1): inhibited | Inhibitor of OATP1B1 (OATP1B1): Yes | Inhibition of OCT2 (OCT2): did not inhibit | Inhibitor of OCT2 (OCT2): No | Uptake activity remaining, OATP1B3 (OATP1B3; 50 μM): roughly 18% | potency estimated from few doses (OATP1B3; [6]): < 50 µM | potency estimated from few doses (OATP1B3; estimated from two doses): < 50 µM | Inhibition of OATP1B3 (OATP1B3): inhibited | Inhibitor of OATP1B3 (OATP1B3): Yes | Uptake by OAT3 (OAT3; 1 and 10 μM): ≥ 9.27 pmol/minute/mg protein | Substrate of OAT3 (OAT3; test article 1 and 10 μM): Yes | Substrate of BSEP (BSEP [5]): Yes
